Laboratory results as given in patent publication US20220105192A1, “COMPOSITION, METHOD AND USE THEREOF” (RYBOQUIN COMPANY LTD, priority 2019, published 2022).

What was measured:
ITCH mRNA [1] = experiment: ITCH mRNA knockdown by qPCR after LipofectAMINE 2000 transfection, Kelly cells; assay type: cell-based
Description: (§1) Transfection with LipofectAMINE 2000: one day before transfection, cells were plated at 8×10^4 cells per well for 24-well plate or 1.5×10^5 cells per well for 6-well plate in culture medium. On the day of transfection, LipofectAMINE 2000 (Thermal Fisher) or ITCH/Irrelevant siRNA (Eurogentec) was pre-diluted in OptiMEM (Thermal Fisher) with various concentrations and mixed to form complexes at room temperature (RT) for 25 min before adding to cells. mRNAs or protein lysates were collected 72 hours after transfection for further analysis.
(§2) Real-time PCR: cDNA from each mRNA sample was synthesized using superscript III first strand synthesis kit (Thermal Fisher). To determine the ITCH expression, real time PCR was performed using SYBR-green qPCR kit (Eurogentec), using beta-actin or SDHA (sequence details as above) as endogenous control. The qPCR was run using either StepOne plus qPCR machine (Thermal Fisher) or CFX96 qPCR system (Bio-Rad). Results were analysed using their corresponding software.
(§3) To determine ITCH silencing in neuroblastoma cells in vitro, neuroblastoma cells were transfected with ITCH siRNA, using LipofectAMINE 2000 as the transfection reagent. Cells were transfected with either, a) ITCH siRNA (6.25 nM to 100 nM) using 2 μl/well LipofectAMINE 2000 or b) Different amounts of LipofectAMINE2000 (0.5 μl/well, 1 μl/well and 2 μl/well) with 100 nM ITCH siRNA for 4 hours in OptiMEM, and then change into complete medium for a further 72 hours.
(§4) The ITCH mRNA levels were determined by qPCR, and cells transfected with irrelevant siRNA were used as the control.

ITCH mRNA [2] = experiment: ITCH mRNA knockdown by qPCR after LipofectAMINE 2000 transfection, BE2 cells; assay type: cell-based
Description: as §1, §2, §3, §4

Itch protein [3] = experiment: Western blot of Itch protein after siRNA transfection, Kelly cells; assay type: cell-based
Description: as §1
[…] 100 μl of lysis buffer was added to each well of the 6-well plate, and left on ice for 10 minutes. Samples were collected and boiled for 3 minutes and then centrifuged at 14,000 g for 10 minutes at 4° C. The supernatants were stored at −80° C. until needed. 30 μl/well of each sample were loaded onto NuPAGE Novex 10% bis-Tris Gel, and run at a constant voltage of 150V for 1 hour, before being transferred to a nitrocellulose membrane at 300 mA for 2 hours. The membrane was then blocked with Odyssey block solution (LI-COR Biosciences) for 60 min, incubated by primary antibodies of mouse anti-ITCH antibody (1:2000, BD) or rabbit anti-TP73 (1:1000, Generon), and mouse anti-beta actin (1:5000, Sigma) overnight at 4° C. […]

Itch protein [4] = experiment: Western blot of Itch protein after siRNA transfection, BE2 cells; assay type: cell-based; details: 72 hours after transfection, in comparison to irrelevant siRNA treated cells
Description: as §1
Western blot: 72 hours after transfection, protein was extracted in RIPA (Radio-Immunoprecipitation Assay) lysis buffer (Sigma) containing a complete protease inhibitor cocktail (1:100, Roche). 100 μl of lysis buffer was added to each well of the 6-well plate, and left on ice for 10 minutes. Samples were collected and boiled for 3 minutes and then centrifuged at 14,000 g for 10 minutes at 4° C. The supernatants were stored at −80° C. until needed. 30 μl/well of each sample were loaded onto NuPAGE Novex 10% bis-Tris Gel, and run at a constant voltage of 150V for 1 hour, before being transferred to a nitrocellulose membrane at 300 mA for 2 hours. […]

TP73 = experiment: Western blot of TP73 after ITCH siRNA transfection, Kelly cells; assay type: cell-based; details: LipofectAMINE2000, samples at 1, 2, 3, 6 days and D6+3, western blot normalized to β-actin
Description: […] 100 μl of lysis buffer was added to each well of the 6-well plate, and left on ice for 10 minutes. Samples were collected and boiled for 3 minutes and then centrifuged at 14,000 g for 10 minutes at 4° C. The supernatants were stored at −80° C. until needed. 30 μl/well of each sample were loaded onto NuPAGE Novex 10% bis-Tris Gel, and run at a constant voltage of 150V for 1 hour, before being transferred to a nitrocellulose membrane at 300 mA for 2 hours. The membrane was then blocked with Odyssey block solution (LI-COR Biosciences) for 60 min, incubated by primary antibodies of mouse anti-ITCH antibody (1:2000, BD) or rabbit anti-TP73 (1:1000, Generon), and mouse anti-beta actin (1:5000, Sigma) overnight at 4° C. After washing with PBS (phosphate-buffered saline) containing 1% Tween 20 (PBST) for 15 min×3 times at room temperature, the membrane was then incubated with IRDye 680 RD goat anti-rabbit and IRDye 800 CW goat anti-mouse 2nd antibodies (1:15000, LI-COR Biosciences) for 1 hour at RT. The image of the blotted membrane was acquired by Odyssey Clx infrared imaging system (LI-COR Biosciences) using image studio software.
Kelly cells were transfected with ITCH siRNA or irrelevant siRNA in 6-well plates using LipofectAMINE2000. The protein samples were collected 1 day, 2 days, 3 days and 6 days after transfection. […]

Kelly cells = experiment: SubG1 analysis (apoptosis) of transfected Kelly cells after 4 Gy irradiation; assay type: cell-based; details: 4 Gy irradiation three days after transfection, analysed one day after irradiation
Description: SubG1 analysis: to examine the effects of ITCH silencing on the apoptosis of neuroblastoma cells upon irradiation, Kelly cells were firstly transfected with ITCH siRNA as described above, using irrelevant siRNA as control. Cells were exposed to 4 Gy irradiation three days after transfection. 24 hours after irradiation, cells were trypsinized and centrifuged at 2000 rpm, for 5 min. Pre-cold 70% ethanol was then added dropwise to cell pellet, and the cells were fixed at 4° C. for 30 min before centrifuge again and the cell pellet washed with citric buffer twice before adding 50 μl RNase followed by 50 μg/ml PI (propidium iodide) for 5 min. The cells were then pelleted again at 2000 rpm for 5 min, and re-suspended in 0.5 ml PBS for FACS (fluorescent associated cell sorting) analysis. The cell cycle profile was acquired using FACS calibur machine and the percentage of cells in the SubG1 region was calculated using Flowjo software.
Kelly cells were transfected with ITCH and irrelevant siRNA, respectively. Three days later, cells were subjected to 4 Gy irradiation. The subG1 population was analysed one day after the irradiation. […] This difference was statistically significant between the 2 groups (p<0.001, Mann-Whitney test).

ITCH mRNA [5] = experiment: In vivo silencing of ITCH in neuroblastoma (Kelly) xenograft tumours, real time RT-PCR; set-up: species or system mouse; details: for Differences in % (ITCH SiRNA vs Irre SiRNA), relative ITCH expression <0.8 / Differences in % (ITCH SiRNA vs Irre SiRNA), relative ITCH expression <1 / % of samples with relative ITCH expression <0.8 / % of samples with relative ITCH expression <1 / Number of samples with relative ITCH expression <0.8 / Number of samples with relative ITCH expression <1: 24 h after injection; for % of samples with relative ITCH expression <0.8 / % of samples with relative ITCH expression <1 / Number of samples with relative ITCH expression <0.8 / Number of samples with relative ITCH expression <1: n number 24; for more samples expressing lower level of ITCH (relative expression <0.8) in treated group than in control group: 48 h after delivery; for ITCH silencing: 48 hours after delivery, vs irrelevant siRNA group; for Relative expression of ITCH/SDHA (mean ± SEM) / Relative expression of ITCH/β-actin (mean ± SEM): xenograft tumours
Description: Establishment of the xenograft neuroblastoma model and in vivo transfection of ITCH siRNA with nanoparticles: 6-8 week old NSG-SCID female mice were ordered from Charles River laboratories. All procedures were approved by UCL animal care policies and were carried out under Home Office Licenses issued in accordance with the United Kingdom Animals (Scientific Procedures) Act 1986 (UK). The mice were acclimatized for 1-2 weeks before engrafting the neuroblastoma cells. On the day of injection, Kelly cells were trypsinized and re-suspended in medium at a density of 3×10^6 cells/100 μl. 100 μl cell suspension was mixed with equal volume of Matrigel (BD biosciences) on ice and immediately injected subcutaneously into the left or right upper thigh of the mouse. The body weight and the tumour size/volume of each mouse were monitored from D4 after engraftment. The in vivo administration of the ITCH siRNA nanoparticles was performed on mouse once its tumour grew bigger than 5mm at both dimensions. The nanoparticle formulation for in vivo study was also prepared at the 1:4:1 ratio, using cationic lipid AT-1, which contains 1% PEG and the peptide used was ME27. 1 mg siRNA/kg of nanoparticles was injected intravenously into each mouse. The tumour was harvested either 24 hours or 48 hours after administration, and processed for qPCR analysis.
Real time RT-PCR analysis of tumour samples: each tumour was divided into 4 parts and mRNA was extracted respectively for real time RT-PCR analysis. iTaq Universal SYBR Green One-Step Kit was used in this assay. For normalization, 2 separate housekeeping genes, beta-actin and SDHA (Fisher M, 2005) were included. As there were in total 104 samples to test, it was not possible to fit all samples in a single 96 well testing plate. Therefore, sample 05 c was chosen, from an untreated tumour sample as a common control. This sample was included in every plate that was run and all the data from each plate were calculated relative to this sample (the ddCT value of each sample was calculated by subtracting the deICT value of sample 05 c).

[6] = 6.25 nM siRNA, 2 μl/well LipofectAMINE 2000, qPCR, control irrelevant siRNA
[7] = 12.5 nM siRNA, 2 μl/well LipofectAMINE 2000, qPCR, control irrelevant siRNA
[8] = 25 nM siRNA, 2 μl/well LipofectAMINE 2000, qPCR, control irrelevant siRNA
[9] = 50 nM siRNA, 2 μl/well LipofectAMINE 2000, qPCR, control irrelevant siRNA
[10] = 100 nM siRNA, 2 μl/well LipofectAMINE 2000, qPCR, control irrelevant siRNA
[11] = 24 hours after i.v. 1 mg siRNA/kg nanoparticles (AT-1, ME27)
[12] = 48 hours after i.v. 1 mg siRNA/kg nanoparticles (AT-1, ME27)

ITCH siRNA: siRNA, sense strand 5′-GCUGUUGUUUGCCAUAGAA55-3′ (SEQ ID NO 003), antisense strand 5′-UUCUAUGGCAAACAACAGC55-3′ (SEQ ID NO 004) (Eurogentec) (listed as RNA, chemistry not given here)
ITCH knockdown (ITCH mRNA [1]; [6]): 64.7% | ITCH knockdown (ITCH mRNA [1]; [7]): 77.8% | ITCH knockdown (ITCH mRNA [1]; [8]): 73.5% | ITCH knockdown (ITCH mRNA [1]; [9]): 89% | ITCH knockdown (ITCH mRNA [1]; 100nM SiRNA, 0.5 μl/well LipofectAMINE 2000): 85% | ITCH knockdown (ITCH mRNA [1]; 100nM SiRNA, 1 μl/well LipofectAMINE 2000): 83% | ITCH knockdown (ITCH mRNA [1]; 100nM SiRNA, 2 μl/well LipofectAMINE 2000 (LipofectAMINE amount series)): 78.8% | ITCH knockdown (ITCH mRNA [1]; [10]): 78% | ITCH knockdown (ITCH mRNA [2]; [6]): -39% | ITCH knockdown (ITCH mRNA [2]; [7]): 54% | ITCH knockdown (ITCH mRNA [2]; [8]): 48.7% | ITCH knockdown (ITCH mRNA [2]; [9]): 71.8% | ITCH knockdown (ITCH mRNA [2]; 100 nM siRNA, 0.5 μl/well LipofectAMINE 2000): 88.7% | ITCH knockdown (ITCH mRNA [2]; 100 nM siRNA, 1 μl/well LipofectAMINE 2000): 49% | ITCH knockdown (ITCH mRNA [2]; 100 nM siRNA, 2 μl/well LipofectAMINE 2000 (LipofectAMINE amount series)): 34% | ITCH knockdown (ITCH mRNA [2]; [10]): 38.2% | remaining Itch protein level (Itch protein [3]; 72 hours after transfection, western blot, in comparison to non-transfected cells): 31.6% | Itch protein level, time course (Itch protein [3]; LipofectAMINE2000, 1 day to 6 days after the 1st transfection, vs irrelevant siRNA, normalized to β-actin): downregulation of Itch protein was observed | changes in Itch protein level (Itch protein [4]): no changes | TP73 protein level, time course (TP73): upregulation was only detected at day 3 samples and day 6 samples which had been transfected twice | percentage of SubG1 (apoptotic) cells (Kelly cells): 8.36% | Differences in % (ITCH SiRNA vs Irre SiRNA), relative ITCH expression <0.8 (ITCH mRNA [5]; normalized to SDHA): 12.5% | Differences in % (ITCH SiRNA vs Irre SiRNA), relative ITCH expression <1 (ITCH mRNA [5]; normalized to SDHA): 4.17% | % of samples with relative ITCH expression <0.8 (ITCH mRNA [5]; normalized to SDHA): 25% | % of samples with relative ITCH expression <1 (ITCH mRNA [5]; normalized to SDHA): 41.67% | Number of samples with relative ITCH expression <0.8 (ITCH mRNA [5]; normalized to SDHA): 6 | Number of samples with relative ITCH expression <1 (ITCH mRNA [5]; normalized to SDHA): 10 | Differences in % (ITCH SiRNA vs Irre SiRNA), relative ITCH expression <0.8 (ITCH mRNA [5]; normalized to β-actin): −16.67% | Differences in % (ITCH SiRNA vs Irre SiRNA), relative ITCH expression <1 (ITCH mRNA [5]; normalized to β-actin): 8.33% | % of samples with relative ITCH expression <0.8 (ITCH mRNA [5]; normalized to β-actin): 16.67% | % of samples with relative ITCH expression <1 (ITCH mRNA [5]; normalized to β-actin): 45.83% | Number of samples with relative ITCH expression <0.8 (ITCH mRNA [5]; normalized to β-actin): 4 | Number of samples with relative ITCH expression <1 (ITCH mRNA [5]; normalized to β-actin): 11 | more samples expressing lower level of ITCH (relative expression <0.8) in treated group than in control group (ITCH mRNA [5]; normalized to SDHA): 35% | more samples expressing lower level of ITCH (relative expression <0.8) in treated group than in control group (ITCH mRNA [5]; normalized to β-actin): 27.14% | ITCH silencing (ITCH mRNA [5]; normalized to SDHA): 14.6% | ITCH silencing (ITCH mRNA [5]; normalized to β-actin): 19.15% | ITCH silencing (summary) (ITCH mRNA [5]; neuroblastoma xenograft model, nanoparticles, 48 hours after transfection): 15-20% | Relative expression of ITCH/SDHA (mean ± SEM) (ITCH mRNA [5]; [11]): 1.18 ± 0.10 | Relative expression of ITCH/β-actin (mean ± SEM) (ITCH mRNA [5]; [11]): 1.05 ± 0.06 | Relative expression of ITCH/SDHA (mean ± SEM) (ITCH mRNA [5]; [12]): 0.82 ± 0.05 | Relative expression of ITCH/β-actin (mean ± SEM) (ITCH mRNA [5]; [12]): 0.76 ± 0.05
